Laboratory results as given in article PMC8397425, “A Strategy to Conjugate Bioactive Fragments to Cytotoxic Diiron Bis(cyclopentadienyl) Complexes” (Organometallics, 2021).

What was measured:
[1] = Solubility in D2O by 1H NMR; type: physicochemical; conditions: Me2SO2 internal standard, T = 21 °C
Description: The solubility of the complexes in D2O was assessed using ^1H NMR spectroscopy (see Table 1 and the Experimental Section for details). […] Data from the literature for the related nonfunctionalized complexes [2′,3′]CF3SO3 are compiled in Table 1 for comparison.[11] The octanol–water partition coefficients (Log Pow) were measured using a UV–vis method and fall within the −0.2 to +1.2 range (Table 1). […] For instance, Log Pow values of 1.07 and 0.65 are obtained for the geometric isomers [9]CF3SO3 and [10]CF3SO3, respectively.

A2780 cells = assay: Intracellular ROS production, DCFH-DA assay; type: cell-based, human; conditions: for ROS production compared to H2O2 positive control: 10 μM compound vs H2O2 100 μM, 24 h; for intracellular ROS levels: 10 μM, up to 24 h, DCFH-DA fluorescence
Description: In order to shed light on the possible mechanism of action of the biofunctionalized diiron complexes, a series of complementary studies were performed. It was previously shown that the diiron vinyliminium structural motif induces ROS production, possibly associated with more than one mechanism: (1) monoelectron reduction of the complex favored by its net cationic charge; (2) fragmentation into a monoiron derivative and atomic iron; […] After overnight incubation, the cells were treated following the manufacturer’s protocol. […] Stock solutions of compounds were prepared as described above; cells incubated with equal amounts of DMSO in supplemented RPMI were used as a control. The fluorescence was measured up to 24 h with an excitation wavelength of 485 nm and with a 535 nm emission filter by Multilabel Counter (PerkinElmer, Waltham, MA, USA). The measurements were performed in triplicate, and results were reported as mean ± SD. Statistical differences were examined using one-way analysis of variance (ANOVA), and a Tukey test was used for post hoc analysis.

[2] = molecular target: T1, bovine serum albumin (BSA) (Bos taurus, UniProt P02769); assay: BSA fluorescence quenching titration; type: binding; conditions: pH 7.0 buffer, NaCl 0.1 M, NaCac 0.01 M; for Log K (binding constant, compound/BSA): 1:1 model, 25 °C
T1 construct: bovine serum albumin (BSA, lyophilized powder, crystallized, ≥98.0%); purchased Merck
Excerpt: The interaction of [4]CF3SO3 and [9]CF3SO3 with bovine serum albumin (BSA) as a model protein was also explored. The addition of the metal complex to the protein in pH buffer solution (pH 7.0 buffer; NaCl 0.1 M, NaCac 0.01 M) produced a quenching of the intrinsic fluorescence emission of the latter. A data fit, according to the Stern–Volmer equation,[11] provided quenching constants (KSV) values equal to ca. 3.4 × 10^4 for both systems, indicative that a binding event occurs (Figure S1).[32] […] More precisely, the binding constant (10^6) appears to be high enough to ensure adduct formation but also weak enough to release the complex once the biotarget is reached; this is assumed to be the optimal condition for BSA-driven transport and diffusion of a drug.[34]
Ethidium bromide (EB, ≥98.0%), bovine serum albumin (BSA, lyophilized powder, crystallized, ≥98.0%), and natural double-stranded DNA from calf thymus (DNA, lyophilized powder, Na^+ salt in the form of fibers) were purchased from Merck, while anhydrous guanosine 5′-monophosphate disodium salt (Na2[GMP], >98.0%) was purchased from TCI Chemicals. Prior to use, DNA was sonicated to ca. 500 base pair length (MSE-Sonyprep sonicator, 7 cycles of 10 s sonication + 20 s pause at an amplitude of 14 μm, solution kept in ice bath—the final length was checked by agarose gel electrophoresis tests on the sample using a 100 bp DNA ladder) to produce stock solutions in water (ca. 2 mM). Stock solutions of EB and BSA were prepared by weighing directly in the buffer (NaCl 0.1 M, NaCac 0.01M, pH 7.0—NaCac is sodium cacodylate). […] Molar concentrations of solutions of EB (CEB), BSA (CBSA), and DNA (CDNA) were determined by absorbance measurements (εEB^480 nm = 5700 M^–1 cm^–1; εBSA^278 nm = 44000 M^–1 cm^–1; εDNA^260 nm = 13200 M^–1 cm^–1 for a concentration expressed in base pairs). […] In EB/DNA exchange experiments, EB was added to DNA until the fluorescence emission at λex = 520 nm/λem = 595 nm (diagnostic wavelengths for the DNA-intercalated EB only) started to reach the plateau (CEB = 5.60 × 10^–5 M, CDNA = 1.15 × 10^–4 M). […] The total maximum amount of DMSO was checked (<3%) as well as the metal complex absorbance at the set wavelengths (A < 0.05 to ensure negligible inner filter effects). Note that a blank test was carried out by adding DMSO to the EB/DNA mixture, in order to quantify fluorescence changes due only to dilution/solvent effects. For BSA fluorescence titrations, the working solution of the metal complex (4.42 × 10^–5 M for [4]CF3SO3, 4.59 × 10^–5 M for [9]CF3SO3, both in the buffer) was added to a 3.34 × 10^–7 M BSA solution in the buffer (λex = 280 nm, λem = 345 nm, dilution from stock such that the DMSO content is negligible). […]

T1 sequence (P02769 25-607): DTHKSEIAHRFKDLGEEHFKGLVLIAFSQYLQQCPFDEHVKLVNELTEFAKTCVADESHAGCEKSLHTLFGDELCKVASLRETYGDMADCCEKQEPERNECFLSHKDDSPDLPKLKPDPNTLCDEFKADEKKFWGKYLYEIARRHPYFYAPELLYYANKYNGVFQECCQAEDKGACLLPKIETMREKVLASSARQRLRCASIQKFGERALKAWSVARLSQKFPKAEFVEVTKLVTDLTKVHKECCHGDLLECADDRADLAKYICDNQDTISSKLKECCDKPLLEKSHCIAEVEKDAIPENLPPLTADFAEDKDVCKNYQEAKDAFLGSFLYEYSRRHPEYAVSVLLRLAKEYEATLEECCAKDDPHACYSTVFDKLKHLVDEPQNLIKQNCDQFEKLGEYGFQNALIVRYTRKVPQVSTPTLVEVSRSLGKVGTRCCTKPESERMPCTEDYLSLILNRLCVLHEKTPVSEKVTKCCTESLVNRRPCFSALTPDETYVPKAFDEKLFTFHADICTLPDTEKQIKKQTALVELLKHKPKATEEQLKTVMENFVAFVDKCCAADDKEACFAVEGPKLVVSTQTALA

Row | Substance | solubility [1] | ROS production compared to H2O2 positive control (A2780 cells) | intracellular ROS levels (A2780 cells) | Log K (binding constant, compound/BSA) [2] | Stern–Volmer quenching constant (KSV) [2]
1 | [Fe2Cp2(CO)(μ-CO){μ-η^1:η^3-Cγ(3-C6H4OC(=O)C6H4OC(=O)Me)CβHCαNMe(Xyl)}]CF3SO3 [[4]CF3SO3] | <1 × 10^–4 mol L^–1 | ROS production higher than that recorded for H2O2 | Significant intracellular ROS levels | 5.9 ± 0.1 | ca. 3.4 × 10^4
2 | [Fe2Cp2(CO)(μ-CO){μ-η^1:η^3-Cγ(3-C6H4NHC(=O)(CH2)3C6H4N(CH2CH2Cl)2)CβHCαNMe2}]CF3SO3 [[9]CF3SO3] | <1 × 10^–4 mol L^–1 | ROS production higher than that recorded for H2O2 | Significant intracellular ROS levels | 6.5 ± 0.1 | ca. 3.4 × 10^4
